In ChEMBL document CHEMBL2074541, “TP-search Transporter Database” (Hepatology, 1999):

T1: Solute carrier organic anion transporter family member 1A1 (Rattus norvegicus, UniProt P46720)
T1 sequence (P46720 whole entry): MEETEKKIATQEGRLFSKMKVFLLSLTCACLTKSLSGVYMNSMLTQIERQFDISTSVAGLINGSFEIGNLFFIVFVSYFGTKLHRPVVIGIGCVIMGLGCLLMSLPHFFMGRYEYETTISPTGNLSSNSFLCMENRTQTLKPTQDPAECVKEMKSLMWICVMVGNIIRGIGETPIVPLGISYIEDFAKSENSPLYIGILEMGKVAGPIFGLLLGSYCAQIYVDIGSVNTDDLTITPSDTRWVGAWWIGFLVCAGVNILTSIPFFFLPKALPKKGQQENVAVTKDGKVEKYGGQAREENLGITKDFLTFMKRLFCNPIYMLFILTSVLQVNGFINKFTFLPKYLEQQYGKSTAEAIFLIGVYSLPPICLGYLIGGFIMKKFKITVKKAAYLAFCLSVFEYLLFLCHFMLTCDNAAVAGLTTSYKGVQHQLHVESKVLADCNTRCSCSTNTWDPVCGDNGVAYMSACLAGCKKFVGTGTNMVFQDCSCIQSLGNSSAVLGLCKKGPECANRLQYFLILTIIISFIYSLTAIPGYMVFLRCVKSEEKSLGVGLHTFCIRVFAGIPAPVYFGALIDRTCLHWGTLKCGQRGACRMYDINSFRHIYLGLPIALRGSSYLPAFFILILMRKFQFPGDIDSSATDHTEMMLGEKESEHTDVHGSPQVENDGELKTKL


How the values were obtained:
Format in all cases: functional, cell-based
[1] = target: T1, Solute carrier organic anion transporter family member 1A1; test: (§1) TP_TRANSPORTER: uptake in Oatp1-expressing HeLa cells
[2] = substrate: C[C@H](CCC(=O)NCCS(=O)(=O)O)[C@H]1CC[C@H]2[C@@H]3[C@H](O)C[C@@H]4C[C@H](O)CC[C@]4(C)[C@H]3CC[C@]12C; test: as §1
[3] = substrate: O=C1OC(c2ccc(O)c(S(=O)(=O)O)c2)(c2ccc(O)c(S(=O)(=O)O)c2)c2c(Br)c(Br)c(Br)c(Br)c21; test: as §1
[4] = substrate: C[C@H](CCC(=O)NCCS(=O)(=O)O)C1CC[C@H]2[C@@H]3C[C@H](O)[C@@H]4C[C@H](O)CC[C@]4(C)[C@H]3CC[C@]12C; test: as §1

Molecule	Activity [1]	Km [2] [µM]	Km [3] [µM]	Km [4] [µM]
C[C@H](CCC(=O)O)[C@H]1CC[C@H]2[C@@H]3C[C@H](O)[C@@H]4C[C@H](O)CC[C@]4(C)[C@H]3CC[C@]12C [HYODEOXYCHOLIC_ACID]	substrate [+]			
C[C@H](CCC(=O)NCCS(=O)(=O)O)[C@H]1CC[C@H]2[C@@H]3CC[C@H]4C[C@H](O)CC[C@]4(C)[C@H]3C[C@@H](O)[C@]12C [TAUROLAGODEOXYCHOLATE]	substrate [+]			
C[C@H](CCC(=O)NCCS(=O)(=O)O)[C@H]1CC[C@H]2[C@@H]3C[C@@H](O)[C@@H]4C[C@H](O)CC[C@]4(C)[C@H]3CC[C@]12C [TAUROMUROCHOLATE]	substrate [+]			
Solute carrier organic anion transporter family member 1A1 (Rattus norvegicus) (protein) MEETEKKIATQEGRLFSKMKVFLLSLTCACLTKSLSGVYMNSMLTQIERQFDISTSVAGLINGSFEIGNLFFIVFVSYFGTKLHRPVVIGIGCVIMGLGCLLMSLPHFFMGRYEYETTISPTGNLSSNSFLCMENRTQTLKPTQDPAECVKEMKSLMWICVMVGNIIRGIGETPIVPLGISYIEDFAKSENSPLYIGILEMGKVAGPIFGLLLGSYCAQIYVDIGSVNTDDLTITPSDTRWVGAWWIGFLVCAGVNILTSIPFFFLPKALPKKGQQENVAVTKDGKVEKYGGQAREENLGITKDFLTFMKRLFCNPIYMLFILTSVLQVNGFINKFTFLPKYLEQQYGKSTAEAIFLIGVYSLPPICLGYLIGGFIMKKFKITVKKAAYLAFCLSVFEYLLFLCHFMLTCDNAAVAGLTTSYKGVQHQLHVESKVLADCNTRCSCSTNTWDPVCGDNGVAYMSACLAGCKKFVGTGTNMVFQDCSCIQSLGNSSAVLGLCKKGPECANRLQYFLILTIIISFIYSLTAIPGYMVFLRCVKSEEKSLGVGLHTFCIRVFAGIPAPVYFGALIDRTCLHWGTLKCGQRGACRMYDINSFRHIYLGLPIALRGSSYLPAFFILILMRKFQFPGDIDSSATDHTEMMLGEKESEHTDVHGSPQVENDGELKTKL		4.9	3.3	7.5
